The values that follow come from patent publication US5872104A, “Combinations and methods for reducing antimicrobial resistance” (Oridigm Corporation, priority 1994, dated 1999).

In brackets after ≈: the same amount, converted by molar mass. Bounds are passed on as bounds.

Data set [1] relates to vaccinia virion mRNA(guanine-7)methyltransferase. As to conditions: 100 μM; cited from earlier work.
For data set [2], the system named is RNA methyltransferase. As to conditions: cited from earlier work.
Data set [3] relates to vaccinia virion mRNA(nucleoside-2'-)methyltransferase. As to conditions: cited from earlier work.
The subject of data set [4] is tRNA methylases. As to conditions: cited from earlier work.
Data set [5] concerns poly(A)-RNA methylation. As to conditions: inhibitor level that still permitted cell growth; cited from earlier work.
For data set [6] the following is noted: not told; cited from earlier work.
For data set [7], the system named is nucleosidase enzymes responsible for SAH metabolism. As to conditions: cited from earlier work.
Data set [8] has as its system RNA methyltransferase from Streptomyces antibioticus. As to conditions: 100 μM; cited from earlier work.
The test system of data set [9] is RNA methylation. As to conditions: cited from earlier work.
Data set [10] deals with cell transformation by Rous sarcoma virus. As to conditions: concentrations not toxic to normal cells; cited from earlier work.
Data set [11] concerns Staphylococcus aureus, methicillin susceptible. As to conditions: in µg/mL; cited from earlier work.
Data set [12] deals with Staphylococcus aureus, methicillin resistant. As to conditions: cited from earlier work.
Data set [13] deals with Streptococcus pyogenes (group A), erythromycin susceptible. As to conditions: cited from earlier work.
In data set [14] the test system is Streptococcus pneumoniae. As to conditions: in µg/mL; cited from earlier work.
Data set [15] deals with Streptococcus bovis. As to conditions: cited from earlier work.
Data set [16] relates to E. faecalis (Erythromycin susceptible). As to conditions: cited from earlier work.
Data set [17] deals with E. faecalis (Erythromycin resistant). As to conditions: cited from earlier work.
For data set [18], the system named is Viridans streptococci. As to conditions: cited from earlier work.
The subject of data set [19] is Coagulase-negative staphylococci, methicillin resistant. As to conditions: cited from earlier work.
Data set [20] has as its system Listeria monocytogenes. As to conditions: in µg/mL; cited from earlier work.
The test system of data set [21] is Haemophilus influenzae. As to conditions: in µg/mL; cited from earlier work.
The subject of data set [22] is Moraxella catarrhalis. As to conditions: in µg/mL; cited from earlier work.
Data set [23] has as its system Neisseria gonorrhoeae. As to conditions: in µg/mL; cited from earlier work.
Data set [24] relates to N. meningitidis. As to conditions: in µg/mL; cited from earlier work.
Data set [25] relates to Pasteurella multocida. As to conditions: cited from earlier work.
Data set [26] concerns Bordetella pertussis. As to conditions: in µg/mL; cited from earlier work.
Data set [27] deals with Legionella pneumophila. As to conditions: in µg/mL; cited from earlier work.
Data set [28] relates to Campylobacter species. As to conditions: in µg/mL; cited from earlier work.
Data set [29] relates to Gram-positive cocci (peptococcus, peptostreptococcus). As to conditions: anaerobes; cited from earlier work.
For data set [30], the system named is Bacteroides fragilis. As to conditions: anaerobes; in µg/mL; cited from earlier work.
Data set [31] deals with Clostridium perfringens. As to conditions: anaerobes; in µg/mL; cited from earlier work.
In data set [32] the test system is Chlamydia trachomatis. As to conditions: in µg/mL; cited from earlier work.
The subject of data set [33] is Mycoplasma pneumoniae. As to conditions: in µg/mL; cited from earlier work.
For data set [34] the following is noted: cited from earlier work.
Data set [35] concerns porcine liver tRNA methyltransferase. As to conditions: cited from earlier work.
The conditions of data set [36]: sc., rats; cited from earlier work.
Data set [37] relates to methyl transfer from SAM. As to conditions: cited from earlier work.
The conditions of data set [38]: dogs; cited from earlier work.
Data set [39] concerns transfer and ribosomal RNA (tRNA and rRNA) methylases. As to conditions: cited from earlier work.
Data set [40] has as its system Mycobacterium leprae. As to conditions: 12 μg/mouse every 12 hours, 15 doses, local; cited from earlier work.
Data set [41] deals with S. aureus 27660 (erythromycin resistant). The data set is classed as cell-based. As to conditions: inhibitor pre-mixed with BHIA or TSA, with erythromycin (FIG. 3).
Data set [42] deals with S. aureus 6538 (erythromycin susceptible). In words: Erythromycin disk susceptibility with inhibitor pre-mixed in agar. The data set is classed as cell-based. As to conditions: inhibitor pre-mixed with BHIA or TSA, with erythromycin (FIG. 2).
The test system of data set [43] is S. aureus 27660 (erythromycin resistant). In words: Erythromycin disc susceptibility after pre-incubation with inhibitor discs (second procedure). As to conditions: 310 μg/disc, pre-incubation 0-5 hours, 18 hours incubation (FIG. 4).

As for `CNc1ncnc2c1ncn2[C@@H]1O[C@H](CSCC[C@H](N)C(=O)O)[C@@H](O)[C@H]1O` [S-(N^6 -methyladenosyl)-L-homocysteine], in [1], the inhibition (commonly how much of the control response was suppressed) is reported as 85%. For the same compound, the “potency relative to SAH” value in data set [2] was “nearly as potent an RNA methyltransferase inhibitor as SAH”.

Regarding `Nc1ncnc2c1ccn2[C@@H]1O[C@H](CSCCC(N)C(=O)O)[C@@H](O)[C@H]1O` (stereo partly drawn) [STH, S-Tubercidinylhomocysteine], the inhibition result in [3] is on record as “particularly potent inhibitor”. Moreover, in data set [4], the “inhibition of tRNA methylases relative to SAH” value was “retains the inhibitory potency of SAH on tRNA methylases”. Further, the “inhibition of poly(A)-RNA methylation” value in data set [5] is “Inhibition of cytoplasmic methylation”. Further, in data set [6], the membrane permeation entry is recorded as “able to permeate cell membranes”. Moreover, in data set [7], the susceptibility to nucleosidase entry is “not susceptible to the nucleosidase enzymes”.

In the case of `CC(C)CSC[C@H]1O[C@@H](n2cnc3c(N)ncnc32)[C@H](O)[C@@H]1O` [SIBA, 5'-deoxy-5'-S-isobutyl-adenosine], in data set [8], the inhibition is on record as 55%. For the same compound, in data set [9] (1 mM), the “inhibition of RNA methylation” value was ~ 65%. The “inhibition of methylation in whole cells” value in [9] is “strongly inhibit methylation in whole cells”. For the same compound, in data set [9] (especially that of the 5' cap), the “methylation of eukaryotic mRNA” value is on record as “inhibits the methylation of eukaryotic mRNA”. For the same compound, the potency as inhibitor result in data set [10] is “most potent”.

Take `CC[C@H]1OC(=O)[C@H](C)[C@@H](O[C@H]2C[C@@](C)(OC)[C@@H](O)[C@H](C)O2)[C@H](C)[C@@H](O[C@@H]2O[C@H](C)C[C@H](N(C)C)[C@H]2O)[C@](C)(O)C[C@@H](C)CN(C)[C@H](C)[C@@H](O)[C@]1(C)O` [Azithromycin]: the MIC90 in data set [11] is 1.0; in data set [12] it was over 128 µg/mL; in [13] it was 0.12 µg/mL (≈ 0.16 µM); in data set [14], 0.12; in data set [15], 0.25 µg/mL (≈ 0.334 µM); in data set [16] it was 8 µg/mL (≈ 10.7 µM). Further, the MIC90 in data set [17] is over 64 µg/mL; in [18], 16 µg/mL (≈ 21.4 µM); in data set [19], over 128 µg/mL; in data set [20], 4.0; in data set [21], 1.0; in data set [22], 0.5. The MIC90 is 0.15 in data set [23]; 0.12 in data set [24]; 0.5 µg/mL (≈ 0.668 µM) in data set [25]; 0.12 in data set [26]; 0.25-2.0 in data set [27]; 0.25 in data set [28]. In addition, the MIC90 in data set [29] was 2 µg/mL (≈ 2.67 µM); in data set [30], 8.0; in [31] it was 1.0; in data set [32] it was 0.12-0.25; in data set [33] it was 0.001. Moreover, the tissue half-life entry in [34] is “prolonged tissue half-life”.

`NC(=O)c1cccnc1` [Nicotinamide]: the “inhibition of tRNA methyltransferase” value in [35] is “inhibition of porcine liver tRNA methyltransferase activity”. Further, the LD50 (as a rule, the dose expected to kill half of the subjects tested) in [36] was 1680 mg/kg.

On to `Nc1ncnc2c1ncn2[C@@H]1O[C@H](CSCC[C@H](N)C(=O)O)[C@@H](O)[C@H]1O` [S-Adenosylhomocysteine, S-adenosylhomocysteine], for which the inhibition in data set [8] is reported as 97%; in [37], “effective inhibitors”. Besides, in data set [38], the uptake and excretion result was “not taken up and excreted unchanged in urine”.

For the compound polyinosinate, in [39], the “combination with adenine and adenosine” value was “particularly effective in combination with adenine and adenosine”; the “inhibition of tRNA and rRNA methylases” value was “inhibits transfer and ribosomal RNA (tRNA and rRNA) methylases”. For the same compound, the inhibition by base result in [39] (methylases of individual bases) is “inhibition of adenine methylases occurred to the greatest extent and guanine methylases to the least”. Further, the “multiplication of M. leprae” value in data set [40] was “inhibit multiplication of Mycobacterium leprae”.

In the case of `CCSCC[C@H](N)C(=O)O` [Ethionine], the “increase in the size of the clear zone” value in [41] and in data set [42] was “increase in the size of the clear zone” in each case. For the same compound, the “increase in clear zones relative to erythromycin alone” value in data set [43] is “Increases in clear zones were observed”.
